Source: patent publication US7833964B2, “Methods of reducing visceral fat by increasing levels of insulin-like growth factor-I (IGF-I)” (Tercica, Inc., priority 2003, dated 2010)
“And” between values parts separate entries of the source, which are not always exact repeats. Identical values can stand only once.

Columns and labels:
Change in body weight [1] = assay type: in vivo, human; conditions: for Weight Change (SE) Week 12: change from Day 1
From the text: The efficacy endpoints were the change in glucose control as assessed by the change from baseline (day 1 to week 12) in hemoglobin A1c (HbA1c) levels, and changes from baseline (day 1 to week 12) in fasting blood glucose (BG), body weight, and visceral and mid-thigh fat.
The primary efficacy variable for the assessment of treatment effect on glucose control at Week 12 was the change from baseline (day 1) in HbA1c levels. Secondary efficacy variables assessing glucose control at Week 12 were the change from baseline (day 1) for each of the following: fasting blood glucose concentration, weight, and visceral and mid-thigh fat.
Secondary efficacy variables assessing glucose control at Week 12 were the change from baseline (Day 1) for each of the following: weight, and visceral and mid-thigh fat.

Change in BMI = assay type: in vivo, human; conditions: for BMI Change (SE) Wk 14: 2 weeks after treatment stopped
From the text: The degree of obesity in humans is commonly assessed by calculating the body mass index or BMI. The BMI is essentially correcting body weight for height. Obviously a very tall person will likely weigh more than a person with short stature so this correction for height makes BMI a better gauge of the degree of obesity than uncorrected body weight. Table 6 gives the BMI data for the subjects treated with IGF-I. At baseline the subjects had average BMIs of over 30. Overweight is defined as a BMI of over 25 and obesity is defined as a BMI of over 30. […] Treatment with IGF-I reduced BMI and this effect was maintained until week 14, which was 2 weeks after treatment with IGF-I was stopped. In subjects treated with 20 micrograms of IGF-I, BMI fell by 1.0 kg/m^2 at 12 weeks and 0.9 kg/m^2 at week 14. This effect of IGF-I on BMI was highly statistically significant versus glyburide at week 12 (p=0.019) and week 14 (p=0.0064). Therefore IGF-I had the ability to reduce BMI or directly affect the most widely accepted measure of obesity. […] This greater effect of low dose IGF-I was unexpected.

[2] = Abdominal CT scan: visceral (VAT) and subcutaneous (SAT) adipose tissue, abdominal perimeter; assay type: in vivo, human; conditions: for change in abdominal perimeter by CT scan, mean±SEM: 12 weeks
Protocol: All CT scans were performed on GE Sytec 4000 CT scanners or an equivalent scanner.
An initial Abdominal Scan was performed using the following procedure: • 1. After the thigh scan was complete, a small triangular wedge pillow was placed under the subject's knees to help tilt the spine to the correct position. The arms were crossed over the chest/neck with elbows up and out of the way of the abdomen. The subject's underpants were pulled down so that the elastic of the underwear was well out of the way of the site where the scan was taken. • 2. The technician positioned the bed in the scanner so that a lateral topogram could be taken that included at least T12 through L5 of the spine. This picture was recorded on film. • 3. The location of the midsection of L3 was identified. • 4. A 10-mm slice at the level of the midpoint of L3 (angle must be zero so that the slice was perpendicular) was taken at the same settings as were used for the thigh slice, with the exception of the DFOV, which was 35 or 45 (35 for a small person and 45 for a large person).
The entire cross section of the abdomen was on the screen. If the entire abdomen was not on the screen, the picture was reconfigured. Once the entire abdomen was on the screen, the technician downloaded it onto the disk and verified that the image was actually on the disk. This was then recorded on film. • 5. The technician sent the film to the printer at this point. It was a requirement that each film had four pictures, and the film had the lateral topogram of the spine and the slice. • 6. The technician then recorded the exam number, the series number, and the image number of slice. • 7. The subject was then removed from the table if there were no more measurements to obtain and the film was collected.
The same procedures were then followed for the repeat abdominal scans with identical settings and locations being used for the repeat scans.
Slices were downloaded onto the scanner and then retrieved via optical disk (or the Internet if possible) to a computer for analysis. During analysis, the area of intra-abdominal and subcutaneous fat as well as oblique, psoas, quadratum laborum, and sacrospinalis muscles were measured. The images were digitized by optical density to separate bone, muscle, and fat compartments using a modified version of the NIH IMAGE program. Pixel units were converted to area measurements using an internal calibration standard. Digitized images were analyzed in a blinded fashion. The coefficient of variation of repeated analysis of a single scan is <1.5%.
Another independent measurement was that the CT scan assessed the abdominal diameter and the abdominal perimeter (e.g., belt size). The abdominal perimeter in subjects treated with glyburide alone was unchanged (−0.3±0.8 cm, mean±SEM) but in subjects treated with IGF-I at 20 micrograms/kg it was reduced (−1.4±0.8 cm) and was reduced even more in subjects treated with 40 micrograms/kg to (−2.9±1.3 cm). This reduction in “girth” caused by high dose IGF-I was, in layman's terms over an inch, or one belt notch, clearly a significant effect in only 12 weeks.
The body components contributing to these beneficial effects of IGF-I on body weight, BMI and girth were then analyzed by studying the changes in body composition as measured by computerized scanning. Two scans were performed. A scan was performed before treatment with IGF-I and another scan was performed after treatment with IGF-I. These two scans were analyzed by measuring the area of fat so that the effect of treatment with IGF-I could be ascertained.
The effect of IGF-I on body fat was estimated using the visceral adipose tissue (VAT) in abdomen and the subcutaneous adipose tissue (SAT) in the abdomen. The absolute changes in fat and the percent changes in fat were both analyzed. The percent changes were analyzed to guard against subjects with larger amounts of fat being given undue statistical weight in the analyses. […]

Change in body weight [3] = assay type: in vivo, human; conditions: for Weight Change (SE) Week 14: 2 weeks after treatment stopped; for Weight Change (SE) Week 8: change from Day 1
[4] = IGF-I administration in human subjects; cited from earlier work
[5] = injected in castrated male sheep; cited from earlier work
[6] = rats, catabolic state induced by diabetes, dexamethasone, or intestinal resection; cited from earlier work
[7] = mini-poodles; cited from earlier work
[8] = glyburide 10 mg BID + rhIGF-I placebo
[9] = glyburide active + IGF-I placebo
[10] = glyburide active + IGF-I placebo, abdominal CT, change from baseline
[11] = IGF-I 20 μg/kg BID, with glyburide or glyburide placebo per label
[12] = IGF-I 40 μg/kg BID, with glyburide or glyburide placebo per label
[13] = low dose IGF-I (20 μg/kg BID) alone
[14] = subjects treated with 20 micrograms of IGF-I
[15] = IGF-I 20 μg/kg, with glyburide or glyburide placebo per label
[16] = IGF-I 40 μg/kg, with glyburide or glyburide placebo per label

## COc1ccc(Cl)cc1C(=O)NCCc1ccc(S(=O)(=O)NC(=O)NC2CCCCC2)cc1 [Glyburide, glyburide, reference compound]
Change in body weight [1]; [8]
  Weight Change (SE) Week 12: −0.1 (0.5) kg
Change in BMI; [8]
  BMI Change (SE) Wk 12: 0.0 (0.2) kg/m^2
  BMI Change (SE) Wk 14: 0.0 (0.3) kg/m^2
Change in BMI; glyburide 10 mg BID + rhIGF-I placebo, change from Day 1
  BMI Change (SE) Wk 8: −0.1 (0.1) kg/m^2
[2]; [9]
  Mean SAT % Change (SEM): 1% and 1.0 (1.9) %
  Mean VAT % Change (SEM): 9% and 9.3 (3.9) %
[2]; [10]
  Change in SAT, mean (SEM): 2.0 (5.6) cm^2
  Change in VAT, mean (SEM): 13.6 (6.4) cm^2
[2]; glyburide alone
  change in abdominal perimeter by CT scan, mean±SEM: −0.3±0.8 cm
Change in body weight [3]; [8]
  Weight Change (SE) Week 14: 0.0 (0.8) kg
  Weight Change (SE) Week 8: −0.2 (0.4) kg

## IGF-I: recombinant human insulin-like growth factor-I from Genentech; sterile benzyl alcohol-preserved solution, 70 mg in 7 mL acetate/NaCl, pH 5.4; given SC
Change in body weight [1]; [11]
  Weight Change (SE) Week 12: −2.8 (0.7) kg
Change in body weight [1]; [12]
  Weight Change (SE) Week 12: −0.6 (0.7) kg
Change in body weight [1]; [13]
  weight lost on average, Week 12: 2.8 kg
Change in BMI; [11]
  BMI Change (SE) Wk 8: −0.5 (0.2) kg/m^2
  BMI Change (SE) Wk 12: −1.0 (0.2) kg/m^2
  BMI Change (SE) Wk 14: −0.9 (0.2) kg/m^2
Change in BMI; [12]
  BMI Change (SE) Wk 8: −0.1 (0.2) kg/m^2
  BMI Change (SE) Wk 12: −0.2 (0.2) kg/m^2
  BMI Change (SE) Wk 14: −0.6 (0.2) kg/m^2
Change in BMI; [14]
  BMI fell by, at 12 weeks: 1.0 kg/m^2
  BMI fell by, at week 14: 0.9 kg/m^2
[2]; [15]
  Change in SAT, mean (SEM): −12.3 (4.1) cm^2
  Change in VAT, mean (SEM): 1.0 (9.0) cm^2
  Mean SAT % Change (SEM): −6.0 (2.6) %
  Mean VAT % Change (SEM): 1.0 (4.0) %
[2]; [16]
  Change in SAT, mean (SEM): −16.1 (5.4) cm^2
  Change in VAT, mean (SEM): −20.0 (7.6) cm^2
  Mean SAT % Change (SEM): −6.4 (2.5) %
  Mean VAT % Change (SEM): −9.4 (3.9) %
[2]; IGF-I alone at 40 μg/kg
  visceral fat area reduced by: ~10%
[2]; IGF-I at 20 micrograms/kg
  change in abdominal perimeter by CT scan, mean±SEM: −1.4±0.8 cm
[2]; IGF-I at 40 micrograms/kg
  change in abdominal perimeter by CT scan, mean±SEM: −2.9±1.3 cm
Change in body weight [3]; [11]
  Weight Change (SE) Week 14: −2.7 (0.6) kg
  Weight Change (SE) Week 8: −1.5 (0.6) kg
Change in body weight [3]; [12]
  Weight Change (SE) Week 14: −1.6 (0.5) kg
  Weight Change (SE) Week 8: −0.2 (0.5) kg
Change in body weight [3]; [13]
  weight loss 2 weeks after treatment was stopped (Week 14): 2.7 kg
  weight lost on average, Week 8: 1.5 kg
[4]
  effect on body fat and body composition: little effect
[5]
  effect on body fat: no detectable effect
  insulin levels: lowered insulin levels
[6]
  percentage of body fat: trend toward a lower percentage of body fat
[7]
  body mass index: reduced body mass index
